Results reported in patent US20080051457A1, “Optically Active Phthalamide Derivative, Agricultural or Horticultural Insecticide, and Method of Using the Same” (priority 2004, published 2008).

Tests used:
[1] = system: Diamond Back Moth (Plutella xylostella); experiment: Test Example 1: insecticidal activity on diamond back moth, cabbage leaf disc dip; format: in vivo; details: foliar, 192 h, third instar larvae, eight days after the inoculation, read-out: insecticidal activity judged from mortality
From the text: (§1) A cabbage leaf disc (variety: Shikidori) cut into 7 cm-diameter was dipped for about 30 seconds into a chemical solution prepared by diluting a preparation containing each compound listed in Tables 1 and 2 as an active ingredient to adjust the concentration to 50 ppm. After dried, it was put into a plastic Petri dish with a diameter of 9 cm and inoculated with ten of the third instar larvae of diamond back moths. Eight days after the inoculation, the dead and alive larvae were counted. The mortality was calculated according to the following equation and the insecticidal activity was judged according to the criterion shown below. The test was carried out with three replications under the condition of 25° C., 50-60% RH and 16L-8D photoperiod. [formula]

[2] = system: Common Cutworm (Spodoptera litura); experiment: Test Example 2: insecticidal activity on common cutworm, cabbage leaf disc dip; format: in vivo; details: foliar, 192 h, second instar larvae, eight days after the inoculation, read-out: insecticidal activity judged from mortality
From the text: as §1, with “second” for “third”, “common cutworm.” for “diamond back moths.”, “calculated” for “calculated according to the following equation”, “in” for “according to”, “same manner as in Test Example 1.” for “criterion shown below.”, “photoperiod.” for “photoperiod. [formula]”

SMILES | mortality at 50 ppm [1] [%] | mortality at 50 ppm [2] [%]
CSC[C@H](C)NC(=O)c1c(I)cccc1C(=O)Nc1ccc(OC(F)(F)F)cc1C [Compound 1-42, (S)-3-iodo-N^1-(2-methyl-4-trifluoromethoxyphenyl)-N^2-(1-methyl-2-methylthioethyl)phthalamide] | 100 | 100
Cc1cc(OC(F)(F)F)ccc1NC(=O)c1cccc(I)c1C(=O)N[C@@H](C)CS(C)(=O)=O [Compound 1-44, (S)-3-iodo-N′-(2-methyl-4-trifluoromethoxyphenyl)-N^2— (1-methyl-2-methylsulfonylethyl)phthalamide] | 100 | 100
